Measured values as given in patent US6998259B1, “Enzymatic treatment of whey proteins for the production of antihypertensive peptides and the resulting products” (Davisco Foods International, priority 1999, dated 2006).
Read-outs that look alike come from different tables or passages of the source. One block for each substance: values may come before it. No end group written: not given here.

Key:
[1] = tested on: spontaneously hypertensive rats; conditions: among nine identified peptide sequences; cited from earlier work
ACE = ACE (Homo sapiens, UniProt P12821); conditions: cited from earlier work
[2] = molecular target: T1, Angiotensin Converting Enzyme (from rabbit lung) (Oryctolagus cuniculus, UniProt P12822); assay: ACE-inhibitory activity, in vitro spectrophotometric assay (Cushman and Cheung, HHL substrate); assay type: biochemical
T1 construct: Angiotensin Converting Enzyme (from rabbit lung); purchased Sigma Chemical Co. (St. Louis, USA); host or cells: rabbit lung tissue
T1 sequence (P12822 34-1310): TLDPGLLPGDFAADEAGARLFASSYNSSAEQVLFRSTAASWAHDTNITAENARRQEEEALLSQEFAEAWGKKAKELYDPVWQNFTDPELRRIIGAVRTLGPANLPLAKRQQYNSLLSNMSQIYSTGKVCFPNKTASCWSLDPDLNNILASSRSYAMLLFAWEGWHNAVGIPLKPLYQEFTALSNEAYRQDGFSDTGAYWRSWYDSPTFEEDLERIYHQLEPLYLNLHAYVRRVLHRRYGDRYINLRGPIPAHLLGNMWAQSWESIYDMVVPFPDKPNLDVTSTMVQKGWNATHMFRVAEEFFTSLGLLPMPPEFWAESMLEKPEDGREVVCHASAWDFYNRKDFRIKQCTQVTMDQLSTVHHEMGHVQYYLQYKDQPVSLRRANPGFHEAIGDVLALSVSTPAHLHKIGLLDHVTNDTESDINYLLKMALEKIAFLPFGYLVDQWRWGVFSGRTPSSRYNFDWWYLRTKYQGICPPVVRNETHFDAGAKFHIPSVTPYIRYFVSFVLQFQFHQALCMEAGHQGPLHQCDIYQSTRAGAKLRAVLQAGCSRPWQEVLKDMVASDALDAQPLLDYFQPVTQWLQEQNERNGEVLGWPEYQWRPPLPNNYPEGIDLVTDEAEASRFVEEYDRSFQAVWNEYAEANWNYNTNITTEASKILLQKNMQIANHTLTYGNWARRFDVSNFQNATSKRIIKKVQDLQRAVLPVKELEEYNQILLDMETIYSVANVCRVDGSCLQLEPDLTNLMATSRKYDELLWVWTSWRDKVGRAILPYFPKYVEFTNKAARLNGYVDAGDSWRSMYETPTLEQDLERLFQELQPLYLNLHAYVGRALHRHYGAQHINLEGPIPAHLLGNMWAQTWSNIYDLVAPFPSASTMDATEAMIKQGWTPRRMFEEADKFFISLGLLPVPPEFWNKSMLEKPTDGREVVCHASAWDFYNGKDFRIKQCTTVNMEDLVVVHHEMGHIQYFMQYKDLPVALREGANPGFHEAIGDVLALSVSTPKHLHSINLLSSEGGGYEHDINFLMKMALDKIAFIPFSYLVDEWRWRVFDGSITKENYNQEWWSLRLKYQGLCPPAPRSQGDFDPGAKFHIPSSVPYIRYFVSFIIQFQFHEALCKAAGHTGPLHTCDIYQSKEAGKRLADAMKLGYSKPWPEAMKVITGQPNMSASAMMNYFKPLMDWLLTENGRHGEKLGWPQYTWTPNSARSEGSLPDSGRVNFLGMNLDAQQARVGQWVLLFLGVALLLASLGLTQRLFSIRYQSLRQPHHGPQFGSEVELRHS
From the text: Whey protein hydrolysate WPH 917 (84.5% protein w/w) was obtained from New Zealand Milk Product Inc. (Santa Rosa, USA). Whey protein hydrolysate LE80GF (80.0% w/w) was obtained from DMV International (New-York, USA). Whey protein isolate (BiPRO™) and β-lactoglobulin-rich product were obtained from Davisco Foods International (Le Sueur, Minn., USA). Purified peptidic sequence Ala-Leu-Pro-Met-His-Ile-Arg modelling the peptide f-142–148 from β-1g was chemically-synthetized by the Service de séquence de peptides de l'Est du Québec (Ste-Foy, Qc, Canada). HEPES Sodium salt, Hippuryl-L-Histidyl-L-Leucine, and Angiotensin Converting Enzyme (from rabbit lung) were purchased from Sigma Chemical Co. (St. Louis, USA). All other products used were analytical grade.
The ACE-inhibitory activity was measured in vitro by a spectrophotometric assay according to the method of Cushman and Cheung. (Cushman, D. N., Cheung, H. S. 1971 Spectrophotometric assay and properties of the angiotensin converting enzyme of rabbit lung. Biochemical Pharmacology, 20: 1637–1648.) According to this method, hippuric acid is liberated from hippuryl-L-histidyl-L-leucine (HHL) by the enzymatic reaction of ACE. After extraction by ethyl acetate and removal of ethyl acetate by heat evaporation, hippuric acid is dissolved in deionized water.
Inhibitory activity was calculated according to the following equation: Inhibitory activity (%)=[(Acontrol−Asample)/(Acontrol−Ablank)]×[…] 1 where A represents absorbance. A plot of the inhibitory activity (%) versus log10 of sample concentration (mg powder ml^−1) was generated using 6 different concentrations of samples for BIPRO™, AS-601 (BiPRO™β-1g), commercial hydrolysates (WPH 917, LE80GF) and of synthetic peptide (f142–148) from β-1g. Each concentration was tested in triplicate and the mean value was plotted in the curves. The IC50 value (expressed in terms of mg powder ml^−1, defined as the concentration of inhibitor which gives 50% inhibition of ACE activity, was calculated using the linear regression equations of the curves.

[3] = inhibitory activity (%) versus sample concentration (mg powder ml^−1)

ACE, sequence (P12821 30-1306, species assumed): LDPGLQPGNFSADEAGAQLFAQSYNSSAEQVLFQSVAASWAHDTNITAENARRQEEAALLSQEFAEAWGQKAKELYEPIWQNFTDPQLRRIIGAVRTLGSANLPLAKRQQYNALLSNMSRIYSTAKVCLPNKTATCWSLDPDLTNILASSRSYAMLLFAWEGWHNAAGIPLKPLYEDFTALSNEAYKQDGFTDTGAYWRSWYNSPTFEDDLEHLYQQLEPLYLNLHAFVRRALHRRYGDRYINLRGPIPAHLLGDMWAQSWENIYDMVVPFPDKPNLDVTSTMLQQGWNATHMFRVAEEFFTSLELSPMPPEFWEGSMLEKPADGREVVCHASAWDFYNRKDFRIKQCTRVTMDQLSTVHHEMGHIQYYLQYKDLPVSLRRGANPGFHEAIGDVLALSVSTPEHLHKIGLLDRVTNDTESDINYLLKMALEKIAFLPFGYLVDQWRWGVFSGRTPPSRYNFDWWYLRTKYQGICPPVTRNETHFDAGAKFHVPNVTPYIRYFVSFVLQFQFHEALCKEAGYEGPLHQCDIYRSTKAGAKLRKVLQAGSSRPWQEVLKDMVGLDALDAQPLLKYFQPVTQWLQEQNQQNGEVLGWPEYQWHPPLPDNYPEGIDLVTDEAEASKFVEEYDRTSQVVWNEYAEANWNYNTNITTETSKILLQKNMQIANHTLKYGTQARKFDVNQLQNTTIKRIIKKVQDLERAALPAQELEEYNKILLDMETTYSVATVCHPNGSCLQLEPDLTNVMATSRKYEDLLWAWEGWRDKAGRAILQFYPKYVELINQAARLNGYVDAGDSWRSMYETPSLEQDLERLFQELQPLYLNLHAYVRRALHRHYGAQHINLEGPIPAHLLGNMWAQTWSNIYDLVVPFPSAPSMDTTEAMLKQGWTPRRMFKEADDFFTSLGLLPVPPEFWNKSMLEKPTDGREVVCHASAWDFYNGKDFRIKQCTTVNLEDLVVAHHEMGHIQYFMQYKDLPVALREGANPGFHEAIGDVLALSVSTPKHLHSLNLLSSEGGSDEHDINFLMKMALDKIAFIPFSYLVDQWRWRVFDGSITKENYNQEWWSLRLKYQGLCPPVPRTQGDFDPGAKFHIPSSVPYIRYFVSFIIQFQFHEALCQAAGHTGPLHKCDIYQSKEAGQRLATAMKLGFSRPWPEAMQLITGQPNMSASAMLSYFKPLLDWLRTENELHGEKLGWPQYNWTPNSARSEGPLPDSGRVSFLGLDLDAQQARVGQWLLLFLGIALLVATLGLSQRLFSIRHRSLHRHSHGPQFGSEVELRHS

Substance: β-lactoglobulin (f78–80): peptide fragment 78–80 of β-lactoglobulin from proteinase K digestion of cheese whey protein (Abubakar et al.) (IPA; UniProt P02754 94-96, looked up, fragment)
antihypertensive activity [1]: strongest antihypertensive activity

Slope m of linear regression (y=m lnX+b) of the ACE-inhibitory activity curve [2, 3]: 10.35
Y-intercept b of linear regression (y=m lnX+b) of the ACE-inhibitory activity curve [2, 3]: 84.4
IC50 ([2]; rabbit lung ACE, HHL substrate, 37° C. for 20 min, 6 concentrations in triplicate, calculated from linear regression, read-out: IC50 (concentration of inhibitor which gives 50% inhibition of ACE activity) (converted)): 47.8 µM
Substance: ALPMHIR [β-1 g f142–148, Ala-Leu-Pro-Met-His-Ile-Arg]
IC50 (ACE; Mullally et al. 1997, read-out: IC50 (ACE inhibition)): 42.6 µM

Substance: peptide f23–34 from xsl casein: peptide f23–34 from casein (bovine, variant B), from tryptic casein hydrolysate (FFVAPFPEVFGK; Alpha-S1-casein; UniProt P02662 38-49, looked up, fragment)
IC50 (ACE; Maruyama and Suzuki, tryptic casein hydrolysate peptide, read-out: IC50 (concentration needed to inhibit 50% ACE activity)): 77 µM
